The values below come from ChEMBL document CHEMBL1697731, “Cheminformatics analysis of assertions mined from literature that describe drug-induced liver injury in different species” (Chem Res Toxicol, 2010).

Series [1] relates to Hepatotoxicity. Briefly: Literature-mined compound from Fourches et al multi-species drug-induced liver injury (DILI) dataset, effect in non-rodents.
For series [2], the system named is Hepatotoxicity. Briefly: Literature-mined compound from Fourches et al multi-species drug-induced liver injury (DILI) dataset, effect in humans. Particulars: human.
Series [3] concerns Hepatotoxicity. The experiment in a line: Literature-mined compound from Fourches et al multi-species drug-induced liver injury (DILI) dataset, effect in rodents. The settings on record: rodentia.

Take `CN(CCOc1ccc(CC2SC(=O)NC2=O)cc1)c1ccccn1` (stereo not drawn) [ROSIGLITAZONE]: the Hepatotoxicity result is reported as “no drug-induced liver injury reported” in series [1], “drug-induced liver injury reported” in series [2] and “drug-induced liver injury reported” in series [3].

In the case of `CC(C)c1nc(N(C)S(C)(=O)=O)nc(-c2ccc(F)cc2)c1/C=C/[C@@H](O)C[C@@H](O)CC(=O)O` [ROSUVASTATIN], the Hepatotoxicity entry in series [1] is given as “no drug-induced liver injury reported”; in series [2], “no drug-induced liver injury reported”; in series [3], “drug-induced liver injury reported”.

On to `CC[C@H]1OC(=O)[C@H](C)[C@@H](O[C@H]2C[C@@](C)(OC)[C@@H](O)[C@H](C)O2)[C@H](C)[C@@H](O[C@@H]2O[C@H](C)C[C@H](N(C)C)[C@H]2O)[C@](C)(O)C[C@@H](C)/C(=N\OCOCCOC)[C@H](C)[C@@H](O)[C@]1(C)O` [ROXITHROMYCIN], for which the figures for the Hepatotoxicity entry in series [1], in series [2] and in series [3] were “no drug-induced liver injury reported”, “drug-induced liver injury reported” and “drug-induced liver injury reported”, respectively.

On to `CC[C@@]1(O)C(=O)OCc2c1cc1n(c2=O)Cc2cc3c([N+](=O)[O-])cccc3nc2-1` [RUBITECAN], for which the Hepatotoxicity entry in series [1] was “no drug-induced liver injury reported”; in series [2], “drug-induced liver injury reported”; in series [3], “no drug-induced liver injury reported”.

As to `NC(=O)c1ccccc1O` [SALICYLAMIDE], the Hepatotoxicity entry in series [1] is recorded as “no drug-induced liver injury reported”; in series [2], “drug-induced liver injury reported”; in series [3], “drug-induced liver injury reported”.

On to `O=C(O)c1ccccc1O` [SALICYLIC ACID], for which the Hepatotoxicity entry in series [1] (Liver) is reported as “no drug-induced liver injury reported”; in series [2] (Liver), “no drug-induced liver injury reported”; in series [3] (Liver), “drug-induced liver injury reported”.

In the case of `C#CCN(C)[C@H](C)Cc1ccccc1` [SELEGILINE], the Hepatotoxicity result is “no drug-induced liver injury reported” in series [1], “drug-induced liver injury reported” in series [2] and “no drug-induced liver injury reported” in series [3].

Turning to `C[Se]CC[C@H](N)C(=O)O` [SELENOMETHIONINE], the Hepatotoxicity result is “drug-induced liver injury reported” in series [1], “no drug-induced liver injury reported” in series [2] and “drug-induced liver injury reported” in series [3].

Consider `Cn1cnc2c(F)c(Nc3ccc(Br)cc3Cl)c(C(=O)NOCCO)cc21` [SELUMETINIB], for which the values for the Hepatotoxicity entry in series [1], in series [2] and in series [3] were “no drug-induced liver injury reported”, “no drug-induced liver injury reported” and “drug-induced liver injury reported”, respectively.

For the compound `Cc1cc(C)c(/C=C2\C(=O)Nc3ccccc32)[nH]1` [SEMAXANIB], the Hepatotoxicity entry in series [1] is listed as “no drug-induced liver injury reported”; in series [2], “drug-induced liver injury reported”; in series [3], “drug-induced liver injury reported”.

For `C=C1/C(=C\C=C2/CCC[C@]3(C)[C@@H]([C@H](C)/C=C/C=C/C(O)(CC)CC)CC[C@@H]23)C[C@@H](O)C[C@@H]1O` [SEOCALCITOL], the Hepatotoxicity entry in series [1] was “no drug-induced liver injury reported”; in series [2] it was “drug-induced liver injury reported”; in series [3], “no drug-induced liver injury reported”.

Take `CN[C@H]1CC[C@@H](c2ccc(Cl)c(Cl)c2)c2ccccc21` [SERTRALINE]: the Hepatotoxicity result was “no drug-induced liver injury reported” in series [1] (Liver), “drug-induced liver injury reported” in series [2] (Liver) and “drug-induced liver injury reported” in series [3] (Liver).

Regarding `FCOC(C(F)(F)F)C(F)(F)F` [SEVOFLURANE], the figures for the Hepatotoxicity result in series [1], in series [2] and in series [3] were “no drug-induced liver injury reported”, “drug-induced liver injury reported” and “drug-induced liver injury reported”, respectively.

As to `CC(C)CC(N(C)C)C1(c2ccc(Cl)cc2)CCC1` (stereo not drawn) [SIBUTRAMINE], the results for the Hepatotoxicity entry in series [1], in series [2] and in series [3] were “no drug-induced liver injury reported”, “drug-induced liver injury reported” and “no drug-induced liver injury reported”, respectively.

In the case of `COc1cc(C2Oc3cc([C@H]4Oc5cc(O)cc(O)c5C(=O)[C@@H]4O)ccc3OC2CO)ccc1O` (stereo partly drawn) [SILIBININ], the Hepatotoxicity result in series [1] is reported as “no drug-induced liver injury reported”; in series [2], “drug-induced liver injury reported”; in series [3] it was “drug-induced liver injury reported”.

As to `CO[C@H]1C[C@@H]2CC[C@@H](C)[C@@](O)(O2)C(=O)C(=O)N2CCCC[C@H]2C(=O)O[C@H]([C@H](C)C[C@@H]2CC[C@@H](O)[C@H](OC)C2)CC(=O)[C@H](C)/C=C(\C)[C@@H](O)[C@@H](OC)C(=O)[C@H](C)C[C@H](C)/C=C/C=C/C=C/1C` [SIROLIMUS], the Hepatotoxicity result was “no drug-induced liver injury reported” in series [1], “drug-induced liver injury reported” in series [2] and “drug-induced liver injury reported” in series [3].

Regarding `Cc1cc2c(cc1CC(=O)c1sccc1S(=O)(=O)Nc1onc(C)c1Cl)OCO2` [SITAXENTAN], the Hepatotoxicity result in series [1] is given as “no drug-induced liver injury reported”; in series [2] it was “drug-induced liver injury reported”; in series [3], “no drug-induced liver injury reported”.

With `CC(=O)[O-].[Na+]` [SODIUM ACETATE], the Hepatotoxicity entry in series [1] (Liver) is listed as “no drug-induced liver injury reported”; in series [2] (Liver), “no drug-induced liver injury reported”; in series [3] (Liver), “drug-induced liver injury reported”.

In the case of `O=C([O-])c1ccccc1.[Na+]` [SODIUM BENZOATE], the Hepatotoxicity entry in series [1] is given as “no drug-induced liver injury reported”; in series [2] it was “no drug-induced liver injury reported”; in series [3], “drug-induced liver injury reported”.

Regarding `O=C([O-])O.[Na+]` [SODIUM BICARBONATE], the Hepatotoxicity entry in series [1] (Liver) is on record as “drug-induced liver injury reported”; in series [2] (Liver), “no drug-induced liver injury reported”; in series [3] (Liver), “drug-induced liver injury reported”.

For `O=C([O-])CCCc1ccccc1.[Na+]` [SODIUM PHENYLBUTYRATE], the Hepatotoxicity result is listed as “no drug-induced liver injury reported” in series [1], “drug-induced liver injury reported” in series [2] and “no drug-induced liver injury reported” in series [3].

Consider `O=S(=O)([O-])Oc1ccc(C(c2ccc(OS(=O)(=O)[O-])cc2)c2ccccn2)cc1.[Na+].[Na+]` [SODIUM PICOSULFATE], for which the values for the Hepatotoxicity result in series [1], in series [2] and in series [3] were “no drug-induced liver injury reported”, “drug-induced liver injury reported” and “no drug-induced liver injury reported”, respectively.

As for `CCC(=O)[O-].[Na+]` [SODIUM PROPIONATE], the Hepatotoxicity entry in series [1] is listed as “no drug-induced liver injury reported”; in series [2], “no drug-induced liver injury reported”; in series [3], “drug-induced liver injury reported”.

On to `CNC(=O)c1cc(Oc2ccc(NC(=O)Nc3ccc(Cl)c(C(F)(F)F)c3)cc2)ccn1.Cc1ccc(S(=O)(=O)O)cc1` [SORAFENIB TOSYLATE], for which the values for the Hepatotoxicity entry in series [1], in series [2] and in series [3] were “no drug-induced liver injury reported”, “drug-induced liver injury reported” and “no drug-induced liver injury reported”, respectively.

On to `OC[C@@H](O)[C@@H](O)[C@H](O)[C@@H](O)CO` [SORBITOL], for which the Hepatotoxicity result in series [1] is given as “no drug-induced liver injury reported”; in series [2], “drug-induced liver injury reported”; in series [3], “drug-induced liver injury reported”.

Regarding `CC(C)NCC(O)c1ccc(NS(C)(=O)=O)cc1` (stereo not drawn) [SOTALOL], the Hepatotoxicity result in series [1] is given as “no drug-induced liver injury reported”; in series [2], “no drug-induced liver injury reported”; in series [3], “drug-induced liver injury reported”.

`Oc1c2ccccc2c2c3c(cccc13)N=N2` [SP-600125]: the Hepatotoxicity result is “no drug-induced liver injury reported” in series [1], “drug-induced liver injury reported” in series [2] and “drug-induced liver injury reported” in series [3].

With `C[C@@H]1CN(c2c(F)c(N)c3c(=O)c(C(=O)O)cn(C4CC4)c3c2F)C[C@H](C)N1` [SPARFLOXACIN], the Hepatotoxicity entry in series [1] is given as “no drug-induced liver injury reported”; in series [2], “drug-induced liver injury reported”; in series [3], “no drug-induced liver injury reported”.

Consider `CC(=O)S[C@@H]1CC2=CC(=O)CC[C@]2(C)[C@H]2CC[C@@]3(C)[C@@H](CC[C@@]34CCC(=O)O4)[C@H]12` [SPIRONOLACTONE], for which the results for the Hepatotoxicity result in series [1], in series [2] and in series [3] were “no drug-induced liver injury reported”, “drug-induced liver injury reported” and “drug-induced liver injury reported”, respectively.

In the case of `C[C@]12Cc3c[nH]nc3C[C@@H]1CC[C@@H]1[C@@H]2CC[C@@]2(C)[C@H]1CC[C@]2(C)O` [STANOZOLOL], the Hepatotoxicity entry in series [1] is “no drug-induced liver injury reported”; in series [2], “drug-induced liver injury reported”; in series [3], “drug-induced liver injury reported”.

As to `Cc1cn([C@H]2C=C[C@@H](CO)O2)c(=O)[nH]c1=O` [STAVUDINE], the Hepatotoxicity entry in series [1] is “no drug-induced liver injury reported”; in series [2], “drug-induced liver injury reported”; in series [3] it was “drug-induced liver injury reported”.
